# Results published in patent US9340590B2 (priority 2011, dated 2016).
# Positions of bridges follow the written chain, without caps; N, C: chain ends. Non-standard residues stand in square brackets, D forms with d. Residues, ends and D or L forms follow the SMILES beside them. Pra = C#CC[C@H](N)C(=O)O
# How the values were obtained:
# hNav1.7 = hNav1.7 (Homo sapiens, UniProt Q15858); assay: cell-based; details: Nav1.7 Use IC50
# hNav1.5 = hNav1.5 (Homo sapiens, UniProt Q14524); assay: cell-based
# Chain of hNav1.5 (Q14524 whole entry, looked up): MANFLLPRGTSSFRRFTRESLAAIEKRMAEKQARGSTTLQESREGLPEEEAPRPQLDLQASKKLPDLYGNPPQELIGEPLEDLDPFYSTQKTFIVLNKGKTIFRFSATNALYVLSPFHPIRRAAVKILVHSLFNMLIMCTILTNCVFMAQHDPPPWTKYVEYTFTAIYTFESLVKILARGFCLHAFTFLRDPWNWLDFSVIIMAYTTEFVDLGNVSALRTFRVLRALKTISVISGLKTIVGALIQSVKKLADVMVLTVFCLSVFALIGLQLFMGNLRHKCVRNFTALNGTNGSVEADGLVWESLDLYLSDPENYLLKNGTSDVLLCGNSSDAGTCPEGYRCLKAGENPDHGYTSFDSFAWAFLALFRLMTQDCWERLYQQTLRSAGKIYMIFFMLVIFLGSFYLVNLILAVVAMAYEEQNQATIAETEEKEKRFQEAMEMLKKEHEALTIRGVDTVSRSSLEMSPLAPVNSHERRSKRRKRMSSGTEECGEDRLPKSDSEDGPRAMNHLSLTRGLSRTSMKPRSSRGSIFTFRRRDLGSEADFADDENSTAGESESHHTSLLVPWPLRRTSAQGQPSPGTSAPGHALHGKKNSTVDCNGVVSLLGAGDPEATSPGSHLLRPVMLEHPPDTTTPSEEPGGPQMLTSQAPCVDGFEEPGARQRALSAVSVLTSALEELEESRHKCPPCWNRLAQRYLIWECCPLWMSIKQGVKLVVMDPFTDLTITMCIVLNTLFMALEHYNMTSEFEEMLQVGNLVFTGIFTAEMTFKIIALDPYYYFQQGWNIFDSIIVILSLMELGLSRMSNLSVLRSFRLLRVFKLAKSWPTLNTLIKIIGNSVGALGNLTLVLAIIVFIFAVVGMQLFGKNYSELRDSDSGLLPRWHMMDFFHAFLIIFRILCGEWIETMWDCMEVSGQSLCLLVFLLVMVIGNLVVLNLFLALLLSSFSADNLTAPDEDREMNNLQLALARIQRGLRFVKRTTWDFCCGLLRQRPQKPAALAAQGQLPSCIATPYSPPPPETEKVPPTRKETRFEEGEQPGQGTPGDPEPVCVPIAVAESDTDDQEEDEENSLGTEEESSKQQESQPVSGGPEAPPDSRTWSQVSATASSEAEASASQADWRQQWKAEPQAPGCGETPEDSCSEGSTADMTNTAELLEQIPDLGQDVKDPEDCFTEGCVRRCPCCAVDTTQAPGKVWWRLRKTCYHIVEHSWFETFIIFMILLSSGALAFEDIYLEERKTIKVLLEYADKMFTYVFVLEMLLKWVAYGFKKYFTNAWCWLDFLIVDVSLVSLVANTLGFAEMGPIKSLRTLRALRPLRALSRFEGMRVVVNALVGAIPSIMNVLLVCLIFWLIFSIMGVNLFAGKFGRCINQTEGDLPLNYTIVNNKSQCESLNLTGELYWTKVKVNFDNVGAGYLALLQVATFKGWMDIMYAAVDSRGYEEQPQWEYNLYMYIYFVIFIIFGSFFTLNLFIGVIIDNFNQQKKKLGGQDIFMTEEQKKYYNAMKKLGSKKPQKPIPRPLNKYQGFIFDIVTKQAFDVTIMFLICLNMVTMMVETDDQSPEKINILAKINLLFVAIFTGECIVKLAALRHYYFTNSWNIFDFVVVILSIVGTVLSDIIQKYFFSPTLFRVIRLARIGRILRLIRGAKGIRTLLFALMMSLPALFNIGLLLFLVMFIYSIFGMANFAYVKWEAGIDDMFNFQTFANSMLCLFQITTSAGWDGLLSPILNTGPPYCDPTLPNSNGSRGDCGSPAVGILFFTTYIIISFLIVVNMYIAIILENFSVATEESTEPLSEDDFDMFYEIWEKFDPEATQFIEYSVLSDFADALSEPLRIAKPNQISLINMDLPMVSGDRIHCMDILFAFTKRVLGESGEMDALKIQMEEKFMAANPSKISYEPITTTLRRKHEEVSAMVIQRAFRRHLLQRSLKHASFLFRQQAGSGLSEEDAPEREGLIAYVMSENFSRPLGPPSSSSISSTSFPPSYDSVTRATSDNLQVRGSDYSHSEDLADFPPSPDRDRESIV
# Chain of hNav1.7 (Q15858 whole entry, looked up): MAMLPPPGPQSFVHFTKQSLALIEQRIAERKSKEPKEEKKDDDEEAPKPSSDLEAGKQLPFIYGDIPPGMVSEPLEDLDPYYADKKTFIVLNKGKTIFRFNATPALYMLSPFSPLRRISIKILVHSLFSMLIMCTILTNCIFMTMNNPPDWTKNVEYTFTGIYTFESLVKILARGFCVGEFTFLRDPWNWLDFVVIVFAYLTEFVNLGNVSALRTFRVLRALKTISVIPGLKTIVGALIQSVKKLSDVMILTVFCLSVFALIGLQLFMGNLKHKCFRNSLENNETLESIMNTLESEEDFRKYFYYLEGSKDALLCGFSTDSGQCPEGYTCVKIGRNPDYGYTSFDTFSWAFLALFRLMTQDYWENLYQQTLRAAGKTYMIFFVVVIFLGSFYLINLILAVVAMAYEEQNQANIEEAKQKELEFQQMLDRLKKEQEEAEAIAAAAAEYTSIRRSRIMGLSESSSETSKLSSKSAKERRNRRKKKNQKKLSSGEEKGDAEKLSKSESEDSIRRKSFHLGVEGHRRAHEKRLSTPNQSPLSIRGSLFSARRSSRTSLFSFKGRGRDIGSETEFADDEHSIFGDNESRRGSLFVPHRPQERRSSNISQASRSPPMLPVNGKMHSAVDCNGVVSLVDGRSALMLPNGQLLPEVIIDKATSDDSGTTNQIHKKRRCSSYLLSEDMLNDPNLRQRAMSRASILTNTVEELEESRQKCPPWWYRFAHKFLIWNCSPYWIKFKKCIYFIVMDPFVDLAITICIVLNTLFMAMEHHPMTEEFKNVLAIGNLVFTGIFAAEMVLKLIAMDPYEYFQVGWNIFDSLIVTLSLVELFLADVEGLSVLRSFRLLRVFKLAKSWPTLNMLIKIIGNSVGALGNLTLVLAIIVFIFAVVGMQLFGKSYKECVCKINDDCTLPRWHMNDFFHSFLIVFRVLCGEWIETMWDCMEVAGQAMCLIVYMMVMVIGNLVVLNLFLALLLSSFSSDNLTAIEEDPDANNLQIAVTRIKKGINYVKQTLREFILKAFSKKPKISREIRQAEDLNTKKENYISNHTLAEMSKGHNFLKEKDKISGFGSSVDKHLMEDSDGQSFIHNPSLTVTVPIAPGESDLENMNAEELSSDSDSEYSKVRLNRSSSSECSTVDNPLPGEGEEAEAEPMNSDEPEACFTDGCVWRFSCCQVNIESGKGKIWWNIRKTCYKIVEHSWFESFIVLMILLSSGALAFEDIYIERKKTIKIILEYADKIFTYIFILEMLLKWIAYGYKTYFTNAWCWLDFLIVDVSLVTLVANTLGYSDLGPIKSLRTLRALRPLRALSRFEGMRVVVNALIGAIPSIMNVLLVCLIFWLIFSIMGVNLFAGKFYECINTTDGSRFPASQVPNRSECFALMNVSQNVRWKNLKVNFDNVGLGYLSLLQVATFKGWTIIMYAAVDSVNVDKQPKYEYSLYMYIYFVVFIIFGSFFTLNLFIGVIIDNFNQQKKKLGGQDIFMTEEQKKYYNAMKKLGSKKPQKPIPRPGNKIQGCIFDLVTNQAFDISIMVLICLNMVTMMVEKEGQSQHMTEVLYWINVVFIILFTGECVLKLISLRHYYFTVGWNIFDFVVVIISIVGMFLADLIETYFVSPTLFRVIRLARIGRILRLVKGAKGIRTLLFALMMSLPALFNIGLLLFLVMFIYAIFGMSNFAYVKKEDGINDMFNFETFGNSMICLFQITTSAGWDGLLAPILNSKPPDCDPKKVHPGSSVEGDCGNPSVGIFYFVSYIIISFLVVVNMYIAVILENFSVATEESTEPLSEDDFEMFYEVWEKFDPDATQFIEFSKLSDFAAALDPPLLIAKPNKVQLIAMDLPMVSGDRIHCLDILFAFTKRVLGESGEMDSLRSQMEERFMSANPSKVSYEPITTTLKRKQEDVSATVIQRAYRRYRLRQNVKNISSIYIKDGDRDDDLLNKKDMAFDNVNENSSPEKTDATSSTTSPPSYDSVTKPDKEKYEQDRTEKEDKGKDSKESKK
smiles,measurement,setting,value
"CC[C@H](C)[C@@H]1NC(=O)[C@@H]2CSSC[C@@H]3NC(=O)[C@H](C(C)C)NC(=O)[C@H](CC(C)C)NC(=O)[C@H](CC(N)=O)NC(=O)[C@@H]4CCCN4C(=O)[C@H](CCCNC(=N)N)NC(=O)[C@H](CSSC[C@H](NC(=O)[C@@H](N)CC(=O)O)C(=O)N[C@@H](CC(C)C)C(=O)NCC(=O)N[C@@H](C)C(=O)N[C@@H](CCSC)C(=O)N[C@@H](CCCNC(=N)N)C(=O)N[C@@H](CCCCN)C(=O)N2)NC(=O)[C@H](CSSC[C@@H](C(=O)N[C@@H](CCCCN)C(=O)N[C@@H](Cc2ccc(O)cc2)C(=O)N[C@H](C(=O)N[C@@H](Cc2ccccc2)C(N)=O)C(C)C)NC(=O)[C@H](Cc2c[nH]c4ccccc24)NC(=O)[C@H](Cc2c[nH]cn2)NC(=O)[C@H](Cc2c[nH]cn2)NC(=O)[C@H]([C@@H](C)O)NC(=O)[C@H](CCCNC(=N)N)NC(=O)[C@H](CO)NC3=O)NC(=O)[C@H](CCCCN)NC(=O)[C@H](CC(=O)O)NC(=O)[C@H](CC(N)=O)NC(=O)[C@H](CC(=O)O)NC(=O)[C@@H]2CCCN2C1=O [[Ala5;His28]GpTx-1(1-34)] (H-DCLGAMRKCIPDNDKCCRPNLVCSRTHHWCKYVF-NH2; disulfide 2-17, 9-23, 16-30)",IC50,hNav1.7,26 nM
same,IC50,hNav1.5,> 10000 nM
"C#CC[C@@H]1NC(=O)[C@H](CC(=O)O)NC(=O)[C@@H]2CCCN2C(=O)[C@H]([C@@H](C)CC)NC(=O)[C@@H]2CSSC[C@@H]3NC(=O)[C@H](C(C)C)NC(=O)[C@H](CC(C)C)NC(=O)[C@H](CC(N)=O)NC(=O)[C@@H]4CCCN4C(=O)[C@H](CCCNC(=N)N)NC(=O)[C@H](CSSC[C@H](NC(=O)[C@@H](N)CC(=O)O)C(=O)N[C@@H](CC(C)C)C(=O)NCC(=O)N[C@@H](C)C(=O)N[C@@H](CC(C)C)C(=O)N[C@@H](CCCNC(=N)N)C(=O)N[C@@H](CCCCN)C(=O)N2)NC(=O)[C@H](CSSC[C@@H](C(=O)N[C@@H](CCCCN)C(=O)N[C@@H](Cc2ccc(O)cc2)C(=O)N[C@H](C(=O)N[C@@H](Cc2ccccc2)C(N)=O)C(C)C)NC(=O)[C@H](Cc2c[nH]c4ccccc24)NC(=O)[C@H](CCCNC(=N)N)NC(=O)[C@H](Cc2c[nH]cn2)NC(=O)[C@H](CC(C)C)NC(=O)[C@H](CCCNC(=N)N)NC(=O)[C@H](CO)NC3=O)NC(=O)[C@H](CCCCN)NC(=O)[C@H](CC(=O)O)NC1=O [[Ala5;Leu6,26;Pra13;Arg28]GpTx-1(1-34)] (H-DCLGALRKCIPD[Pra]DKCCRPNLVCSRLHRWCKYVF-NH2; disulfide 2-17, 9-23, 16-30)",IC50,hNav1.7,9 nM
same,IC50,hNav1.5,> 10000 nM
CC(C)C[C@@H]1NC(=O)[C@H](C)NC(=O)CNC(=O)[C@H](CC(C)C)NC(=O)[C@@H](NC(=O)[C@@H](N)CC(=O)O)CSSC[C@@H]2NC(=O)[C@@H]3CSSC[C@@H](C(=O)N[C@@H](CCCCN)C(=O)N[C@@H](Cc4ccc(O)cc4)C(=O)N[C@H](C(=O)N[C@@H](Cc4ccccc4)C(N)=O)C(C)C)NC(=O)[C@H](Cc4c[nH]c5ccccc45)NC(=O)[C@H](CCCCN)NC(=O)[C@H](Cc4c[nH]cn4)NC(=O)[C@H]([C@@H](C)O)NC(=O)[C@H](CCCNC(=N)N)NC(=O)[C@H](CO)NC(=O)[C@H](CSSC[C@H](NC(=O)[C@H](CCCCN)NC(=O)[C@H](CCCNC(=N)N)NC1=O)C(=O)N[C@@H](CCC(=O)O)C(=O)N1CCC[C@H]1C(=O)N[C@@H](CC(=O)O)C(=O)N[C@@H](CC(N)=O)C(=O)N[C@@H](CC(=O)O)C(=O)N[C@@H](CCCCN)C(=O)N3)NC(=O)[C@H](C(C)C)NC(=O)[C@H](CC(C)C)NC(=O)[C@H](CC(N)=O)NC(=O)[C@@H]1CCCN1C(=O)[C@H](CCCNC(=N)N)NC2=O [[Ala5;Leu6;Glu10]GpTx-1(1-34)],IC50,hNav1.7,30 nM
same,IC50,hNav1.5,> 10000 nM
